Data from ChEMBL document CHEMBL1201862, “PubChem BioAssay data set” (2004).
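1) Cells in 96-well plates. 2) Compound, 48 h, 5 concentrations. 3) Linear interpolation between surrounding doses. 4) Unreached endpoint = highest concentration. The concentration for 50% growth inhibition is given as GI50.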 Active and inactive are the calls of the source. Cut-off read from the data, not from the text of the source: active = GI50 up to about 1.1 µM and inactive = higher.

Assays:
Assay in all cases: inhibition of tumour cell growth, NCI panel, 48 h
786-0 = system: 786-0
A498 = system: A498
A549 = system: A549
ACHN = system: ACHN
BT-549 = system: BT-549
CAKI-1 = system: CAKI-1
CCRF-CEM = system: CCRF-CEM
COLO 205 = system: COLO 205
DU-145 = system: DU-145
EKVX = system: EKVX
HCC 2998 = system: HCC 2998
HCT-116 = system: HCT-116
HCT-15 = system: HCT-15
HL-60 = system: HL-60
HOP-62 = system: HOP-62
HOP-92 = system: HOP-92
HT-29 = system: HT-29
Hs-578T = system: Hs-578T
IGROV-1 = system: IGROV-1
K562 = system: K562
KM12 = system: KM12
LOX IMVI = system: LOX IMVI
M14 = system: M14
MCF7 = system: MCF7
MDA-MB-231 = system: MDA-MB-231
MDA-MB-435 = system: MDA-MB-435
MDA-N = system: MDA-N
MOLT-4 = system: MOLT-4
Malme-3M = system: Malme-3M
NCI-H226 = system: NCI-H226
NCI-H23 = system: NCI-H23
NCI-H460 = system: NCI-H460
NCI-H522 = system: NCI-H522
NCI/ADR-RES = system: NCI/ADR-RES
OVCAR-3 = system: OVCAR-3
OVCAR-4 = system: OVCAR-4
OVCAR-5 = system: OVCAR-5
OVCAR-8 = system: OVCAR-8
PC-3 = system: PC-3
RPMI-8226 = system: RPMI-8226
RXF 393 = system: RXF 393
SF-268 = system: SF-268
SF-295 = system: SF-295
SF-539 = system: SF-539
SK-MEL-28 = system: SK-MEL-28
SK-MEL-2 = system: SK-MEL-2
SK-MEL-5 = system: SK-MEL-5
SK-OV-3 = system: SK-OV-3
SN12C = system: SN12C
SNB-19 = system: SNB-19
SNB-75 = system: SNB-75
SR = system: SR
SW-620 = system: SW-620
T47D = system: T47D
TK-10 = system: TK-10
U-251 = system: U-251
UACC-257 = system: UACC-257
UACC-62 = system: UACC-62
UO-31 = system: UO-31

## COc1cc(/C=C/C=C2\CC/C(=C\C=C\c3ccc(O)c(OC)c3)C2=O)ccc1O
786-0
  GI50: > 100 µM (inactive)
A498
  GI50: > 100 µM (inactive)
A549
  GI50: > 100 µM (inactive)
ACHN
  GI50: > 100 µM (inactive)
BT-549
  GI50: > 100 µM (inactive)
CAKI-1
  GI50: > 100 µM (inactive)
CCRF-CEM
  GI50: 0.305 µM (active)
COLO 205
  GI50: > 100 µM (inactive)
DU-145
  GI50: > 100 µM (inactive)
EKVX
  GI50: > 97.3 µM (inactive)
HCC 2998
  GI50: > 100 µM (inactive)
HCT-116
  GI50: > 100 µM (inactive)
HCT-15
  GI50: > 100 µM
HL-60
  GI50: 7.41 µM (inactive)
HOP-62
  GI50: > 100 µM (inactive)
HOP-92
  GI50: > 100 µM (inactive)
HT-29
  GI50: > 100 µM (inactive)
Hs-578T
  GI50: > 100 µM (inactive)
IGROV-1
  GI50: > 100 µM (inactive)
K562
  GI50: 15.2 µM (inactive)
KM12
  GI50: > 100 µM (inactive)
LOX IMVI
  GI50: > 100 µM (inactive)
M14
  GI50: > 100 µM (inactive)
MCF7
  GI50: > 100 µM (inactive)
MDA-MB-231
  GI50: > 59.7 µM (inactive)
MDA-MB-435
  GI50: > 52.4 µM (inactive)
MDA-N
  GI50: > 100 µM (inactive)
MOLT-4
  GI50: 1.02 µM (active)
Malme-3M
  GI50: > 85.7 µM (inactive)
NCI-H226
  GI50: > 100 µM (inactive)
NCI-H23
  GI50: > 73.1 µM (inactive)
NCI-H460
  GI50: > 100 µM (inactive)
NCI-H522
  GI50: 1.45 µM (inactive)
NCI/ADR-RES
  GI50: > 100 µM (inactive)
OVCAR-3
  GI50: > 100 µM (inactive)
OVCAR-4
  GI50: > 60.1 µM (inactive)
OVCAR-5
  GI50: > 100 µM (inactive)
OVCAR-8
  GI50: > 100 µM (inactive)
PC-3
  GI50: > 100 µM (inactive)
RPMI-8226
  GI50: 57.3 µM (inactive)
RXF 393
  GI50: 3.87 µM (inactive)
SF-268
  GI50: > 100 µM (inactive)
SF-295
  GI50: > 100 µM (inactive)
SF-539
  GI50: > 100 µM (inactive)
SK-MEL-28
  GI50: > 100 µM (inactive)
SK-MEL-2
  GI50: > 100 µM (inactive)
SK-MEL-5
  GI50: > 87.9 µM (inactive)
SK-OV-3
  GI50: > 22.2 µM (inactive)
SN12C
  GI50: > 100 µM (inactive)
SNB-19
  GI50: > 100 µM (inactive)
SNB-75
  GI50: > 100 µM (inactive)
SR
  GI50: 2.53 µM (inactive)
SW-620
  GI50: > 100 µM (inactive)
T47D
  GI50: > 100 µM (inactive)
TK-10
  GI50: > 100 µM (inactive)
U-251
  GI50: > 100 µM (inactive)
UACC-257
  GI50: > 100 µM (inactive)
UACC-62
  GI50: > 100 µM (inactive)
UO-31
  GI50: > 82 µM (inactive)
